“Also recorded” adds a separate entry of the source. Peptide text beside a SMILES is read from it.
Tests used:
HEK293T cells = details: 24 h
In short: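 5,000 cells/well seeded a day ahead in DMEM with 10% FBS, then treated with peptides; viability by MTT (0.5 mg/ml, 4 h, 37 °C), formazan in acidic isopropanol read at 570 nm. Concentration causing 50% lysis from non-linear regression; three biological replicates, two technical each.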

A. baumannii ATCC 19606 [1] = assay: Skin abscess infection mouse model; type: in vivo, CD-1 mice; details: for bacterial count, skin abscess (Panel 6b): CD-1 mice; for Anti-infective activity in skin abscess model, in words: single dose at MIC, compared with untreated control and polymyxin B, n = 6
Protocol: A. baumannii ATCC 19606 cells were grown in LB medium to an OD600 = 0.5. Cells were washed twice with sterile phosphate-buffered saline (PBS) (pH 7.4, 13,000 r.p.m. for 2 min) and resuspended to a final concentration of 10^6 (A. baumannii cells) colony-forming units per millilitre (c.f.u. ml^−1). Six-week-old female CD-1 mice from Charles River (stock number 18679700-022) were anaesthetized with isoflurane, and their backs were sterilized and shaved. A superficial linear skin abrasion was made with a needle to damage the stratum corneum and upper layer of the epidermis. An aliquot of 20 μl containing the bacterial load resuspended in PBS was inoculated over the scratched area. Two hours after the infection, peptides diluted in water at their MIC value were administered to the infected area, and the untreated mice were inoculated with the same volume of deionized water. Mice were euthanized, and the area of scarified skin was excised 2 days and 4 days post infection, homogenized using a bead beater for 20 min (25 Hz) and then serially diluted tenfold for quantification of colony-forming units. This quantitative method was used as it has been established to accurately reflect the number of bacteria present in a given infected area. MacConkey agar plates were used as A. baumannii colonies appear purple in this medium and can easily be distinguished from other strains. The experiments were performed with six mice per group. All experiments were performed blindly, and no animal subjects were excluded from the analysis. The skin abscess infection mouse model was approved by the University Laboratory Animal Resources from the University of Pennsylvania (protocol 806763). Statistical significance was determined using one-way analysis of variance (ANOVA) followed by Dunnett’s test in log10-transformed data to mitigate the effect of outliers; P values are presented for each group, with all groups being compared to the untreated control group.

A. baumannii ATCC 19606 [2] = assay: Neutropenic thigh infection mouse model; type: in vivo, CD-1 mice; details: for bacterial count, thigh infection (Panel 6d): neutropenic CD-1 mice
Protocol: Six-week-old female CD-1 mice from Charles River (stock number 18679700-022) were rendered neutropenic by two doses of cyclophosphamide (150 mg kg^−1) applied intraperitoneally with an interval of 72 h. One day after the last dose of cyclophosphamide, the mice were injected intramuscularly in their right thigh with a bacterial load of 10^6 c.f.u. ml^−1 of A. baumannii ATCC 19606 cells. The bacteria had been grown in LB broth, washed twice with PBS (pH 7.4), and resuspended to the desired concentration. Two hours after bacterial injection, peptides resuspended in water were administered intraperitoneally, and the untreated mice were inoculated with the same volume of deionized water. Before each injection, mice were anaesthetized with isoflurane and monitored for respiratory rate and pedal reflexes. Next, we monitored the establishment of the infection and euthanized the mice. The infected area was excised 2 days and 4 days post infection, homogenized using a bead beater for 20 min (25 Hz), and then serially diluted tenfold for quantification of colony-forming units in MacConkey agar plates. The experiments were performed with six mice per group. All experiments were performed blindly, and no animal subjects were excluded from the analysis. The thigh infection mouse model was approved by the University Laboratory Animal Resources from the University of Pennsylvania (protocol 807055). Statistical significance was determined using one-way ANOVA followed by Dunnett’s test in log10-transformed data to mitigate the effect of outliers; P values are presented for each group, with all groups being compared to the untreated control group.

[3] = A. baumannii ATCC 19606, day 2, replicate 1
[4] = A. baumannii ATCC 19606, day 2, replicate 2
[5] = A. baumannii ATCC 19606, day 2, replicate 3
[6] = A. baumannii ATCC 19606, day 2, replicate 4
[7] = A. baumannii ATCC 19606, day 2, replicate 5
[8] = A. baumannii ATCC 19606, day 2, replicate 6
[9] = A. baumannii ATCC 19606, day 4, replicate 1
[10] = A. baumannii ATCC 19606, day 4, replicate 2
[11] = A. baumannii ATCC 19606, day 4, replicate 3
[12] = A. baumannii ATCC 19606, day 4, replicate 4
[13] = A. baumannii ATCC 19606, day 4, replicate 5
[14] = A. baumannii ATCC 19606, day 4, replicate 6

| SMILES | CC50 (HEK293T cells) [µM] | bacterial count, skin abscess (Panel 6b) (A. baumannii ATCC 19606 [1]; [3]) | bacterial count, skin abscess (Panel 6b) (A. baumannii ATCC 19606 [1]; [4]) | bacterial count, skin abscess (Panel 6b) (A. baumannii ATCC 19606 [1]; [5]) | bacterial count, skin abscess (Panel 6b) (A. baumannii ATCC 19606 [1]; [6]) | bacterial count, skin abscess (Panel 6b) (A. baumannii ATCC 19606 [1]; [7]) | bacterial count, skin abscess (Panel 6b) (A. baumannii ATCC 19606 [1]; [8]) | bacterial count, skin abscess (Panel 6b) (A. baumannii ATCC 19606 [1]; [9]) | bacterial count, skin abscess (Panel 6b) (A. baumannii ATCC 19606 [1]; [10]) | bacterial count, skin abscess (Panel 6b) (A. baumannii ATCC 19606 [1]; [11]) | bacterial count, skin abscess (Panel 6b) (A. baumannii ATCC 19606 [1]; [12]) | bacterial count, skin abscess (Panel 6b) (A. baumannii ATCC 19606 [1]; [13]) | bacterial count, skin abscess (Panel 6b) (A. baumannii ATCC 19606 [1]; [14]) | Anti-infective activity in skin abscess model, in words (A. baumannii ATCC 19606 [1]) | bacterial count, thigh infection (Panel 6d) (A. baumannii ATCC 19606 [2]; [3]) | bacterial count, thigh infection (Panel 6d) (A. baumannii ATCC 19606 [2]; [4]) | bacterial count, thigh infection (Panel 6d) (A. baumannii ATCC 19606 [2]; [5]) | bacterial count, thigh infection (Panel 6d) (A. baumannii ATCC 19606 [2]; [6]) | bacterial count, thigh infection (Panel 6d) (A. baumannii ATCC 19606 [2]; [7]) | bacterial count, thigh infection (Panel 6d) (A. baumannii ATCC 19606 [2]; [8]) | other results |
| --- | --- | --- | --- | --- | --- | --- | --- | --- | --- | --- | --- | --- | --- | --- | --- | --- | --- | --- | --- | --- | --- |
| CC[C@H](C)[C@H](NC(=O)[C@@H](N)CC(C)C)C(=O)N[C@H](C(=O)N[C@@H](CS)C(=O)N[C@@H](Cc1ccccc1)C(=O)N[C@@H](Cc1ccccc1)C(=O)N[C@@H](CCCNC(=N)N)C(=O)N[C@@H](CCC(N)=O)C(=O)N[C@@H](CC(C)C)C(=O)N[C@@H](CCCCN)C(=O)N[C@@H](Cc1ccccc1)C(=O)N[C@@H](Cc1c[nH]cn1)C(=O)N[C@@H](Cc1ccccc1)C(=O)O)C(C)C [Megalocerin-1] (H-LIVCFFRQLKFHF-OH; N-terminus and C-terminus assumed) | > 128 | 800000 | 2000000 | 2000000 | 800000 | 600000 | 1000000 | 1200000 | 1000000 | 400000 | 400000 | 1000000 | 400000 | inhibited the proliferation of the infection for up to 4 days after treatment | 1.2e+008 | 2.0e+007 | 2.2e+008 | 2.0e+008 | 1.2e+008 | 2.8e+008 | TI (therapeutic index) (HEK293T cells): > 16; bacterial count, thigh infection (Panel 6d) (A. baumannii ATCC 19606 [2]; [9]): 6.0e+008; bacterial count, thigh infection (Panel 6d) (A. baumannii ATCC 19606 [2]; [10]): 1.0e+009; bacterial count, thigh infection (Panel 6d) (A. baumannii ATCC 19606 [2]; [11]): 4.0e+007; bacterial count, thigh infection (Panel 6d) (A. baumannii ATCC 19606 [2]; [12]): 6.0e+007; bacterial count, thigh infection (Panel 6d) (A. baumannii ATCC 19606 [2]; [13]): 4.0e+007; bacterial count, thigh infection (Panel 6d) (A. baumannii ATCC 19606 [2]; [14]): 2.0e+007 |
| CC(C)C[C@H](NC(=O)CNC(=O)[C@H](CCCNC(=N)N)NC(=O)[C@H](CCCCN)NC(=O)[C@H](CCCNC(=N)N)NC(=O)[C@@H](N)CCCCN)C(=O)N[C@@H](CCCCN)C(=O)N[C@@H](CC(C)C)C(=O)N[C@@H](C)C(=O)N[C@H](C(=O)N[C@@H](C)C(=O)N[C@@H](CC(C)C)C(=O)N[C@@H](CO)C(=O)N[C@@H](CC(C)C)C(=O)N[C@@H](CC(N)=O)C(=O)N[C@@H](CC(N)=O)C(=O)N[C@@H](CCCCN)C(=O)N[C@@H](Cc1ccccc1)C(=O)O)[C@@H](C)O [Mylodonin-2] (H-KRKRGLKLATALSLNNKF-OH; N-terminus and C-terminus assumed) | > 128 | 200000 | 200000 | 600000 | 200000 | 400000 | 400000 | 2000 | 2000 | 60000 | 80000 | 200 | 200 | comparable to that of the widely used antibiotic polymyxin B; also recorded: inhibited the proliferation of the infection for up to 4 days after treatment; also recorded: cleared the infection in some of the mice | 1200000 | 2400000 | 1000000 | 1800000 | 200000 | 400000 | bacterial count, thigh infection (Panel 6d) (A. baumannii ATCC 19606 [2]; [9]): 1.2e+007; bacterial count, thigh infection (Panel 6d) (A. baumannii ATCC 19606 [2]; [10]): 1.2e+008; bacterial count, thigh infection (Panel 6d) (A. baumannii ATCC 19606 [2]; [11]): 2.0e+007; bacterial count, thigh infection (Panel 6d) (A. baumannii ATCC 19606 [2]; [12]): 2.0e+007; bacterial count, thigh infection (Panel 6d) (A. baumannii ATCC 19606 [2]; [13]): 4.0e+007; bacterial count, thigh infection (Panel 6d) (A. baumannii ATCC 19606 [2]; [14]): 2.0e+007; Reduction in bacterial counts, 2 days post treatment (A. baumannii ATCC 19606 [2]; neutropenic thigh infection, single intraperitoneal dose, n = 6): as much as polymyxin B; also recorded: most potent activity, which was comparable to that of the positive control antibiotic, polymyxin B |

Reference: article PMC11310081, “Deep-learning-enabled antibiotic discovery through molecular de-extinction” (Nature Biomedical Engineering, 2024)
